According to patent publication US20150157584A1, “INHIBITORS OF HIPPO-YAP SIGNALING PATHWAY” (The Regents of the University of California, priority 2012, published 2015):
Read-outs that look alike come from different tables or passages of the source.

Key:
YAP [1] = type: cell-based, human
YAP mRNA = YAP mRNA level by RT-PCR; type: cell-based, human; settings: BOCs 293 cells; 3 μM; 12 and 24 hr
YAP [2] = assay: YAP ubiquitination (YAP immunoprecipitation, ubiquitin Western blot); type: cell-based, human; settings: SF268 glioblastoma cells
M14 cells = assay: wound healing assay; type: cell-based, human; settings: M14 melanoma; 24 hr scratch assay
Description: Control and […] treated cells were plated on fibronectin ([…]) coated 6 well plates in complete growth media. After overnight culture, wounds were made by manual scraping of the cell monolayer with a pipet tip. The dishes were washed, replenished with media in the presence or absence of […], and photographed under phase contrast microscope. They were then placed in the tissue culture incubator, and the matched wound regions were photographed every 6 hrs. Migration rate is quantified by traveling distance of leading cellular edge normalized to initial gap distance.

M14 = assay: transwell cell migration assay, M14; type: cell-based, human; settings: 1, 2 and 3 μM C108
Description: Cell migration assay was performed using BD Falcon™ Cell culture inserts for 24-well plates with 22.0 μm pores filter, and the filter was pre-coated with […] Fibronectin. […] After 24 h, cells were fixed using 4% paraformaldehyde and stained using 0.05% crystal violet. Cells in upper chamber were carefully removed, and cells migrated through the filter were assessed by photography. For quantification, crystal violet was extracted and the absorbance at 560 nm was measured.

SK-Mel-28 melanoma = assay: cell migration assay, SK-Mel-28; type: cell-based, human
Description: (§1) Cell migration assay was performed using BD Falcon™ Cell culture inserts for 24-well plates with 22.0 μm pores filter, and the filter was pre-coated with […] Fibronectin. Cancer cells were serum-starved for 24 h and then seeded into the upper chamber of the insert in serum-free media, and lower chamber was filled with media containing 20% FBS with or without 2 μM C108. After 24 h, cells were fixed using 4% paraformaldehyde and stained using 0.05% crystal violet. Cells in upper chamber were carefully removed, and cells migrated through the filter were assessed by photography. For quantification, crystal violet was extracted and the absorbance at 560 nm was measured.

EKVX adenocarcinoma = assay: cell migration assay, EKVX; type: cell-based, human
Description: as §1

M14 Melanoma = assay: M14 melanoma cell proliferation (growth curve); type: cell-based, human
[3] = tested on: EKVX adenocarcinoma xenograft; assay: EKVX adenocarcinoma xenograft in nude mice; type: in vivo, mouse; settings: 100 mg/kg daily via tail-vein injection, three weeks
Description: (§5) Cells grown to 90% confluence were harvested by trypsinization, washed in phosphate-buffered saline (PBS), and resuspended in PBS supplemented with 50% matrigel (BD Biosciences). Cells in 200 μL per injection site were administered. Nude mice (Nu-foxn1nu, Charles Rivers Laboratories) were injected on both flanks of the dorsolateral sites subcutaneously. C108 was formulated in 10% DMSO and 40% propylene glycol then administered at a dose of 100 mg/kg daily via tail-vein injection. Control mice received vehicle alone. The average tumor diameter (two perpendicular axes of the tumor were measured) was recorded. The data are expressed in tumor volume estimated by ([width]^2×length/2). Paired, two-tailed Student's t-test was performed to access the statistical significance.
In order to investigate the physiological impact of C108 on implanted tumor cell growth, in vivo xenograft models using M14 melanoma and EKVX adenocarcinoma in immune compromised mice were examined. Cancer cells mixed with 50% matrigel were injected subcutaneously, palpable tumors with approximately 5 mm in diameter across all injection sites were observed within 3 weeks. […] During the treatment period, tumor growth was monitored and final tumor weights were measured.

M14 melanoma xenograft = M14 melanoma xenograft in nude mice
Description: as §5
In order to investigate the physiological impact of C108 on implanted tumor cell growth, in vivo xenograft models using M14 melanoma and EKVX adenocarcinoma in immune compromised mice were examined. Cancer cells mixed with 50% matrigel were injected subcutaneously, palpable tumors with approximately 5 mm in diameter across all injection sites were observed within 3 weeks. At that point, control group (6 mice) was tail-vein injected with the solvent consist of 10% DMSO and 40% propylene glycol while the treatment group (6 mice) received daily injection of C108 for three additional weeks. During the treatment period, tumor growth was monitored and final tumor weights were measured.

YAP/TAZ = assay: immunoblotting / phos-tag gels of YAP/TAZ phosphorylation in cultured cell lines; type: cell-based, human
Description: Immunoblotting was performed using standard protocol. […] The phos-tag reagents were purchased from Wako Chemicals, and gels containing phos-tag were prepared according to manufacture's instructions. YAP proteins can be separated into multiple bands in the presence of phos-tag depending on differential phosphorylation levels, with phosphorylated proteins run migrate slower.
(§2) Immunoblotting was performed using standard protocol. Antibodies for pYAP (S127), YAP, TAZ (V386), pCREB, CREB, pMLC2 (S19), pMLC2 (T18/S19), MST1, MST2, and Lats1 were from Cell Signaling Technology. Lats2 antibody was from Bethyl laboratories. HA-HRP, GFP, and MLC2 antibodies were from Santa Cruz biotechnology. Tubulin, HSP90 and Flag-HRP were purchased from Sigma Aldrich. PKA antibody was obtained from BD biosciences. GAPDH antibody was a gift from Dr. Yan Luo. Yki antibody was a gift from Dr. Kenneth Irvine. The phos-tag reagents were purchased from Wako Chemicals, and gels containing phos-tag and MnC12 were prepared according to manufacturer's instructions. YAP proteins can be separated into multiple bands on phos-tag gels, with the phosphorylated form of YAP proteins migrating at a slower speed.

YAP [4] = assay: immunofluorescence staining of YAP subcellular localization; type: cell-based, human
Description: HEK293A or MCF10A cells were seeded on coverslips. After treatment, cells were fixed with 4% paraformaldehyde-PBS for 15 min and permeabilized with 0.1% Triton X-100 in TBS. After blocking in 3% FBS in PBS for 30 min, cells were incubated with primary antibodies overnight at 4° C. After three washes with PBS, cells were incubated with Alexa Fluor 488- or 555-conjugated secondary antibodies (Invitrogen, 1:1000 dilution) for 2 h at room temperature. Slides were then washed three times and mounted. Immunofluorescence was detected using Olympus confocal microscopy. Primary antibodies used were: YAP (H-125) and YAP (63.7) from Santa Cruz, HA from Covance, β-catenin from BD biosciences. Phalloidin alexa 488 was used to stain actin filaments. For paraffin-embedded tissues from control or LPA receptor transgenic mammary glands, 5 μm sections were prepared and subjected for immunostaining Following deparaffinization and hydration, slides were heated in sub-boiling buffer (10 mM sodium citrate, pH 6.0) for 15 min for antigen retrieval. TAZ antibody (H-70) from Santa Cruz was used to as primary antibody.

Lats1 [5] = assay: Lats1 immunoprecipitation kinase assay with GST-YAP substrate; type: cell-based, human
Description: Cells were lysed using mild lysis buffer (50 mM HEPES at pH 7.5, 150 mM NaCl, 1 mM EDTA, 1% NP-40, 10 mM pyrophosphate, 10 mM glycerophosphate, 50 mM NaF, 1.5 mM Na3VO4, protease inhibitor cocktail [Roche], 1 mM PMSF). Cell lysates were cleared and used for immunoprecipitation. Lats1 antibody (Cell Signaling Technology) was mixed with cell lysates for 1 hr at 4° C., and then protein A agarose beads were added in for 1 hr. After four washes with lysis buffer, beads were washed once with wash buffer (40 mM HEPES, 200 mM NaCl) and once with kinase assay buffer (30 mM HEPES, 50 mM potassium acetate, 5 mM MgCl2). The immunoprecipitated Lats1 was then subjected to a kinase assay in the presence of 500 μM cold ATP, 10 μCi [γ-32P] ATP, and 1 μg of GST-YAP expressed and purified from Escherichia coli as substrate. The reaction mixtures were incubated for 30 min at 30° C., terminated with SDS sample buffer, and subjected to SDS-PAGE and immunoblotting.

CREB = CREB phosphorylation by immunoblotting; type: cell-based, human
Description: (§3) Immunoblotting was performed using standard protocol. Antibodies for pYAP (S127), pYAP(S381/384), pMST1/2, TAZ, pERK, ERK1/2, Lats1, MST1, pAKT (S473), pS6K, S6K were from Cell Signaling, antibodies for YAP (H-125), CTGF, Cyr61, Gq/11, G13 and 14-3-3θ were from Santa Cruz, TEAD1 antibody was from BD biosciences, pTAZ (S89) antibody was in-house raised, GAPDH antibody was a gift from Dr. Yan Luo. The phos-tag reagents were purchased from Wako Chemicals, and gels containing phos-tag were prepared according to manufacture's instructions. YAP proteins can be separated into multiple bands in the presence of phos-tag depending on differential phosphorylation levels, with phosphorylated proteins run migrate slower.
as §2, with “YAP proteins can be separated into multiple bands on phos-tag gels, with the phosphorylated form of YAP proteins migrating at a slower speed.” left out

YAP [6] = settings: mouse, in vivo, ip
Description: A protocol for epinephrine intraperitoneal (IP) injection in mice was approved by UCSD Institutional Animal Care and Use Committee. Fed male mice at 12 weeks of age were anesthetized. Control animals received an IP injection of propranolol (4 mg/100 g body weight) for 15 min. The test animals IP injected with epinephrine (75 μg/100 g body weight) for 15 min. […] The mice were sacrificed rapidly by cervical dislocation and the heart was harvested and immediately frozen in liquid nitrogen. Samples were stored at −80° C. until use. Frozen tissues were pulverized in liquid nitrogen. All of the subsequent steps were performed at 4° C. Powdered tissue samples were homogenized in 10 volumes (weight/volume) of buffer containing 50 mM Tris-HCl pH 7.6, 10 mM EDTA, 2 mM EGTA, 100 mM NaF, Protease inhibitor cocktail (1 mM Pefabloc, 1 mM benzamidine HCl, 1 μM leupeptin, and 1 μM E64), 1 mM PMSF, 0.2% Tritonx 100, 1 mM Na3VO4, 20 mM beta-glycerophosphate, 1 mM sodium pyrophosphate, and 50 nM calyculin A, using a tissue tearor. Homogenates were then centrifuged at 3,800 g for 10 min twice, and approximately 10 μg of protein, determined by Bradford, of the resultant supernatants were used for Western blot analysis.

YAP [7] = assay: YAP immunoprecipitation with TEAD1 and 14-3-3; type: cell-based, human; settings: HEK293A
Description: (§4) Cells were lysed using mild lysis buffer (50 mM HEPES at pH 7.5, 150 mM NaCl, 1 mM EDTA, 1% NP-40, 10 mM pyrophosphate, 10 mM glycerophosphate, 50 mM NaF, 1.5 mM Na3VO4, protease inhibitor cocktail [Roche], 1 mM PMSF). Cell lysates were centrifuged for 10 min at 4° C., and supernatants were used for immunoprecipitation. YAP (Bethyl Laboratories) antibody was mixed with the supernatant for 1 h, and protein A-agarose beads were added in for 1 h. Immunoprecipitates were washed four times with lysis buffer, and proteins were eluted with SDS-PAGE sample buffer. For kinase assay, MST1, Lats1 or HA-Lats2 was immunoprecipitated similarly using MST1, Lats1 (Cell Signaling) or HA (Covance) antibodies.

CTGF = assay: expression of YAP/TAZ target gene CTGF; type: cell-based, human; settings: HEK293A
Description: as §3
Following various treatments, cells were washed with cold phosphate-buffered saline and subjected to RNA extraction using an RNeasy Plus mini kit (Qiagen). […] Complementary DNA was then diluted and used for quantification (with β-actin gene as a control) by real-time PCR, which was performed using KAPA SYBR FAST qPCR master mix (Kapa Biosystems) and the 7300 real-time PCR system (Applied Biosystems). […]
RNA extraction, reverse transcription and real-time PCR. […] After dilution, cDNA levels were quantified by real-time PCR using KAPA SYBR FAST qPCR master mix (Kapa Biosystems) and the 7300 real-time PCR system (Applied Biosystems). […]

HEK293A cells = assay: cell proliferation assay, HEK293A; type: cell-based, human; settings: 10 μM LPA, replenished every day
Description: HEK293A cells (expressing control shRNA or YAP/TAZ shRNA, 2×10^5) in serum-free media were maintained in the presence or absence of 10 μM LPA for 1, 2 or 3 day. Cell numbers were determined daily using a cell counter (Bio-Rad). LPA was replenished every day.

Mst1/2 = assay: Mst kinase activity and phosphorylation in treated cells; type: cell-based, human
Description: Following immunoprecipitation, protein beads were washed once with wash buffer (40 mM HEPES, 200 mM NaCl) and once with kinase assay buffer (30 mM HEPES, 50 mM potassium acetate, 5 mM MgCl2). The immunoprecipitated Mst1 was subjected to a kinase assay in the presence of 500 μM cold ATP, 10 μCi [γ-^32P] ATP, and 1 μg of GST-Mob expressed and purified from Escherichia coli as substrate. The reaction mixtures were incubated for 30 min at 30° C., terminated with SDS sample buffer, and subjected to SDS-PAGE and autoradiography. Lats1 or HA-Lats2 kinase assays were performed similarly but using GST-YAP as substrates in the absence of [γ-^32P] ATP. The phosphorylation of GST-YAP at S127 was determined by immunoblotting using pYAP antibody.

Lats1 [8] = assay: Lats1 phosphorylation (S909, T1079) by immunoblotting; type: cell-based, human; settings: HEK293A; LPA 1 μM, 1 h
Description: as §4
as §3, with “YAP proteins can be separated into multiple bands in the presence of phos-tag depending on differential phosphorylation levels, with phosphorylated proteins run migrate slower.” left out

Molecule: O=S(=O)(c1ccc2c(c1)C(=NO)c1cc(S(=O)(=O)N3CCCCC3)ccc1-2)N1CCCCC1 [C108, 2,7-bis(piperidin-1-yl-sulfonyl)-9H-fluoren-9-one oxime]
- YAP protein in the presence of cycloheximide (YAP [1]; 10 μM C108, 12 hrs): rapidly diminished
- YAP protein levels (YAP [1]; BOCS cells, 16 hours of treatment): dramatic decrease
- concentration at which endogenous YAP protein was significantly reduced (YAP [1]; BOCs 293 cells, 12 and 24 hr of drug exposure): 2 to 3 µM
- YAP protein levels (YAP [1]; SF268 glioma, M14 melanoma and SK-Mel-28 melanoma): decreased
- YAP mRNA levels (YAP mRNA): no noticeable changes
- endogenous YAP ubiquitination (YAP [2]): dramatically increased
- cell migration in wound-healing assay (M14 cells): strongly inhibited
- migration of M14 (M14): suppressed
- migration of SK-Mel-28 melanoma (SK-Mel-28 melanoma): suppressed
- migration of EKVX adenocarcinoma (EKVX adenocarcinoma): suppressed
- M14 Melanoma cell proliferation (M14 Melanoma): inhibitory effect
- growth of EKVX xenograft tumors [3]: significantly inhibited
- total body weight (M14 melanoma xenograft; 100 mg/kg daily via tail-vein injection, three weeks): not affected
- growth of M14 xenograft tumors (M14 melanoma xenograft; 100 mg/kg daily via tail-vein injection, three weeks, nude mice): significantly inhibited
- apoptotic marker cleaved PARP in tumors (Western blot) (M14 melanoma xenograft; M14 tumors from treated mice): dramatic increase
- level of YAP in tumor tissues (Western blot) (M14 melanoma xenograft; M14 tumors from treated mice): lower level
- Hematoxylin and Eosin stain of tumor sections (M14 melanoma xenograft; melanoma xenografts): sparser and have lower nuclear to cytoplasimc ratio

Molecule: CNC[C@H](O)c1ccc(O)c(O)c1 [epinephrine]
- YAP phosphorylation (Ser127, phos-tag), time course (YAP/TAZ): transiently increased
- mutual effect of epinephrine and LPA on YAP phosphorylation (YAP/TAZ): antagonized each other's effect
- phosphorylation of YAP (YAP/TAZ): dose-dependent phosphorylation
- YAP localization (immunofluorescence) (YAP [4]): accumulation of cytoplasmic YAP
- Lats1 activity (Lats1 [5]): increased
- phosphorylation of CREB (CREB): increased
- phosphorylation of CREB, time course (CREB): transient induction
- YAP phosphorylation in heart (YAP [6]): significantly increased

Molecule: lysophosphatidic acid [LPA]
- phosphorylation of YAP S381/384 (YAP/TAZ; HEK293A transfected with GFP-YAP, LPA 1 h): decreased
- YAP/TAZ dephosphorylation, time course (YAP/TAZ; HEK293A, 1 μM for indicated times): rapid YAP/TAZ dephosphorylation
- dephosphorylation of YAP/TAZ by phospholipids (YAP/TAZ; HEK293A, 100 μM lipid): strongly induced dephosphorylation
- concentration inducing complete YAP/TAZ dephosphorylation (YAP/TAZ; HEK293A, 1 h): 0.1 µM
- concentration inducing partial YAP/TAZ dephosphorylation (YAP/TAZ; HEK293A, 1 h): 0.01 µM
- YAP dephosphorylation, different doses (YAP/TAZ; HEK293A, different doses of LPA, S1P, LPC or PA for 1 h): potently induced
- mutual effect of epinephrine and LPA on YAP phosphorylation (YAP/TAZ; serum-starved U2OS, LPA, epinephrine or both, 1 h): antagonized each other's effect
- YAP nuclear localization (YAP [4]; HEK293A and MCF10A, 1 μM, 1 h): induced YAP nuclear localization
- time after LPA withdrawal at which YAP redistributed into cytoplasm (YAP [4]; MCF10A): 30 min
- YAP-14-3-3 interaction (YAP [7]): attenuated
- interaction between YAP and TEAD1 (YAP [7]): enhanced
- expression of CTGF (CTGF): induced
- cell proliferation in serum free medium (HEK293A cells): strongly induced cell proliferation
- phosphorylation of MST2 at T180 (Mst1/2; HEK293A with Flag-MST2, LPA 0.2 or 1 μM, 1 h): not changed
- Mst1 kinase activity (Mst1/2; HEK293A, FBS 1% or LPA 1 μM, GST-Mob substrate): no detectable effect
- Lats1 kinase activity (Lats1 [5]; HEK293A, serum or LPA): rapidly inhibited
- phosphorylation of Lats1 at S909 and T1079 (Lats1 [8]): decreased
